A short description of one data set: Solubility. It is filed as physicochemical.
Data set [1] deals with Til-1 murine lymphocyte cells. The data set is described as follows: Mitigation of radiation-induced apoptosis in vitro: viability of irradiated Til-1 cells (ATPlite) screen. It is filed as cell-based. Particulars: Mus musculus, light or radiation study, added 1 hour after 2 Gy, viability 24 h after radiation, relative to control irradiated value (100%), read-out: In Vitro (Mitigation cell viability %). As to the method:
The ability of compounds from Example 1 to mitigate radiation-induced apoptosis in vitro relative to control values (100%) is shown in FIG. 1. Briefly, 100,000 small-molecules were screened at 10 μM final concentration in 1% dimethylsulfoxide (DMSO) using the viability of a murine lymphocyte line as a readout (Mitigation cell viability %). Ten thousand Til-1 murine lymphocyte cells were dispensed into each well of 384-well plates using a Multidrop 384 (Thermo Scientific, Waltham, Mass.) The Til-1 cells were irradiated at the dose of 2 Gy. After 1 hour, the small-molecules were added. Twenty-four hours after the radiation, cell viability was assayed by luminesce-based measurement of ATP production (ATPlite, Perkin-Elmer, Waltham, Mass.) with a SpectraMax M5 microplate reader (Molecular Devices, Sunnyvale, Calif.). The Z′ factor for the assay was >0.5. See Zhang, J. H., Chung, T. D., Oldenburg, K. R. “A Simple Statistical Parameter for Use in Evaluation and Validation of High Throughput Screening Assays,” J Biomol Screen 4:67, 1999. A positive readout was >130% of the control irradiated value.
(Cellular ATP, detected with luciferase, serves as a proxy for viable cell number.)

The subject of a further data set is TNF-α mRNA. The data set is described as follows: Cytokine mRNA expression in LPS-stimulated bone marrow-derived macrophages (qPCR). It is filed as cell-based, murine. The settings on record: added to bone marrow-derived macrophages 1 hr after LPS, RT-PCR. As to the method:
Additionally, bone marrow-derived macrophages (BMDMs) were derived by 7 days culture of marrow cells in medium containing 10% FBS and CSF-1 conditioned medium. The serum concentration was reduced to 2% FBS 16 h before stimulation with LPS for 30 min, treatment with drug and incubation for another 3.5 h (4 h total with LPS). Total cellular RNA was isolated by trizol and cDNA synthesized using iScript from BioRad. Gene expression was measured by qPCR and analyzed using the standard curve method, normalized to L32.
In general terms: Quantitative PCR measures a nucleic acid by following its amplification.

The test system of another data set is TNF-α production. The data set is described as follows: TNF-α production by LPS-stimulated peritoneal macrophages (ELISA). The settings on record: added to stimulated peritoneal macrophages 1 hr after LPS, supernatants at 24 hrs, ELISA. It is filed as cell-based, murine. The protocol:
NPSPs were tested for their anti-inflammatory ability using murine macrophages. […] Briefly, peritoneal macrophages (PMs) were induced by intraperitoneal, injection of 150 μg MIS416 (Innate Immunotherapeutics, NZ) and harvested on day 4 by peritoneal wash out with PBS. Culture supernatants were harvested at 24 hrs and cytokines tested by ELISA (BD Biosciences, SD).
(In general: In an ELISA, binding on a coated surface is turned into a signal by an enzyme label.)

The subject of data set [2] is C3Hf/Kam and C57B16/J mice. The data set is described as follows: Animal Whole Body Irradiation (WBI) assay, mitigation of lethality. It counts as in vivo. The protocol: Briefly, Animal Whole Body Irradiation (WBI) Assays were conducted with C3Hf/Kam and C57B16/J mice. The mice were bred and maintained in a strict gnotobiotic environment in the American Association of Laboratory Animal Care-Accredited Animal Facilities of Department of Radiation Oncology, UCLA. The Animal Care and Use Committee approved all experiments, which were performed in accordance with all local and national guidelines for the care and use of animals. Mice, 9-12 weeks old, were given WBI using a Gamma cell 40 irradiator (Cs137 source; Atomic Energy of Canada, Ltd.) at a dose rate of […]. Mice were monitored for at least 30 days and defined criteria for humane euthanasia was used as an endpoint.
Compounds were typically dissolved in 15 μL DMSO and suspended in 1 mL of 1% Cremphor EL in water for administration in 0.2 mL volumes. […] All mice, including controls, received the same diluent as the experimental groups. The chosen compounds were administered to the mice 5 times at 24 h intervals, starting 24 hours after WBI at LD70/30 (7.725 Gy for the C3H strain) doses. Similar data were obtained with a single dose and at 48 hours after radiation exposure in both mouse strains. Both subcutaneous and oral routes were effective. The compounds provided greatly elevated animals survival level as compared to control group.
Dose response experiments were executed in a manner similar to the WBI Assay described in Example 3. […] Both Compound 2 (53555.12) and Compound 3 (5346360) were effective in C57Bl/6 female mice in this case mitigating against LD70/30 doses of 8.509 Gy due to the relative radioresistance of this strain relative to C3Hs. […] When given orally by gavage, Compound 2 (535551.2) in 5 daily doses starting at 24 hours post-WBI was effective at 5 mg/kg in both C3H and C57Bl/6 strains, but not at 25 mg/kg.
Probit analyses of the effect of varying the radiation dose with Compound 2 (5355512) (5 mg/kg), and Compound 3 (5346360) (5 mg/kg), or 5 (5116319) (75 mg/kg) given subcutaneously for 5 days starting 24 hours after WBI, is shown in FIG. 6, with 95% confidence limits shown for LD50 values. The dose-response curves are steep with the dose modifying factors varying with the level of effect and drug, but were in the range 1.04-1.09. Such factors have to be considered against the level of the control and the reason for lethality. In this case, hematological insufficiency and not infection is the cause of death and as a result the radioresistance of the C3H strain is relatively high.
Compounds P1, P2, and P3, analogs of Compound 2 (5355512), were synthesized according to standard protocols. […] The analogs were injected subcutaneously 5 times over 5 clays at 5 mg/kg. Compound P2 elicited 100% survival after 30 days.

The nature of data set [3]: Breakdown products identified in vivo by mass spectrometry. The settings on record: analog of Compound 2.
Where [4] appears, read: injected subcutaneously 5 times over 5 days at 5 mg/kg.

SMILES strings stand for the structures. ≈ marks a conversion by molar mass, not a printed value.

For `O=[N+]([O-])c1ccc(S(=O)(=O)N2CCN(c3ccc(F)cc3)CC2)cc1` [Compound 1, 1-(4-fluorophenyl)-4-[(4-nitrobenzene)sulfonyl]piperazine], the concentration in solution in the data set “Solubility” (solubility) was 26.6 µM (≈ 9.72 µg/mL). In addition, the viability at 10 µM in data set [1] turned out to be 188%.

In turn, `O=[N+]([O-])c1ccc(S(=O)(=O)N2CCN(c3cccc(Cl)c3)CC2)cc1` [Compound 3] displayed a solubility in the data set “Solubility” of 6.5 µM (≈ 2.48 µg/mL). Besides, in the data set on TNF-α mRNA, the “Expression of TNF-α mRNA and other cytokines” value is “inhibit expression of TNF-α mRNA, and other cytokines”. In addition, the TNF-α production entry with TNF-α production is “inhibit TNF-α production”. For the same molecule, the “Mitigation of WBI lethality at 5 mg/kg” value in data set [2] (5 mg/kg injected subcutaneously) is recorded as “effective”. For the same molecule, in data set [2] (C3H male mice, compared with 1, 2, 10, 40, or 75 mg/kg), the “Most effective dose in dose response” value turned out to be 5 mg/kg. Also, the “Mitigation of WBI lethality in C57Bl/6 female mice” value in data set [2] (C57Bl/6 female mice, LD70/30 dose 8.509 Gy) was “effective”. In data set [2] (lowest dosage 5 mg/kg subcutaneously, superior to 40 and 75 mg/kg), the “Survivors at day 30” value is on record as 100%. In data set [2] (orally by gavage, 5 daily doses starting 24 hours post-WBI, 5 mg/kg, C3H and C57Bl/6 strains), the “Mitigation of WBI lethality, oral gavage 5 mg/kg” value was “inactive”. In data set [2] (orally by gavage, 5 daily doses starting 24 hours post-WBI, 25 mg/kg, C3H and C57Bl/6 strains), the “Mitigation of WBI lethality, oral gavage 25 mg/kg” value was “inactive”. Also, the “Effect of increasing the single dose” value in data set [2] (single dose increased to 25 mg/kg, 24 hours after WBI) was “did not improve efficacy”. For the same molecule, the “Mitigation of WBI lethality, single dose” value in data set [2] (single dose of 5 mg/kg given 24 hours after WBI) is recorded as “effective”. Also, in data set [1], the viability at 10 µM worked out at 174%.

Molecule `O=[N+]([O-])c1ccc(S(=O)(=O)N2CCN(C/C=C/c3ccccc3)CC2)cc1` [Compound 4, 1-[(4-nitrobenzene) Sulfonyl]-4-[(2E)-3-phenylprop-2-en-1-yl]piperazine] returned a solubility in the data set “Solubility” of 20.4 µM (≈ 7.9 µg/mL). The viability at 10 µM in data set [1] was 163%.

`CCN(CC)S(=O)(=O)c1ccc([N+](=O)[O-])cc1` [Compound 5, N,N-diethyl-4-nitrophenyl-1-sulfonamide] had a solubility in “Solubility” of 513 µM (≈ 132 µg/mL). Moreover, the TNF-α production entry with TNF-α production is “able to inhibit TNF-α production”. The viability at 10 µM in data set [1] turned out to be 161%.

Turning to `O=[N+]([O-])c1ccc(S(=O)(=O)N2CCNCC2)cc1` [Compound P1], the Solubility in water result in “Solubility” is “soluble in water”. Moreover, the Breakdown product identification result in data set [3] is “natural breakdown product identified in vivo”. The “Mitigation of WBI lethality by analogs” value in data set [2] (setting [4]) is listed as “effective”.

Consider `NCCNS(=O)(=O)c1ccc([N+](=O)[O-])cc1` [Compound P2], for which the Solubility in water entry in the data set “Solubility” is reported as “soluble in water”. For the same molecule, the “Survival after 30 days” value in data set [2] (setting [4]) was 100%.

As to `NCCCCCCCCNS(=O)(=O)c1ccc([N+](=O)[O-])cc1` [Compound P3], in “Solubility”, the Solubility in water entry is recorded as “soluble in water”.

For orientation: solubility means the concentration that dissolves in the medium under given conditions. The low end stands for little dissolved substance, the high end for much dissolved substance. The term viability denotes a read-out of living cells in per cent, often relative to untreated cells.
